Reference: US20240287048A1, “SUBSTITUTED ACYL SULFONAMIDES FOR TREATING CANCER” (The Broad Institute, Inc., priority 2020, published 2024)

Key:
KAT6A = target: T1, KAT6A (Homo sapiens, UniProt Q92794); test: Kat6a activity assay (TR-FRET, acetylation of biotinylated histone H4 peptide); format: biochemical; conditions: recombinant human His-tagged Kat6a (amino acids 194-810), 60 mins at 22° C., read-out: KAT6A-DPF/HAT domain IC50 [mol/l] (arithmetic mean)
T1 construct: Recombinant human His-tagged Kat6a protein (amino acids 194-810); His; made in house; host or cells: Baculovirus-infected Sf9 insect cells
Procedure, shortened: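 His-tagged human Kat6a (aa 194-810, Sf9-expressed) with compound (0.01-20 μM) for 60 min at 22° C., pH 8 Tris buffer, 220 nM biotinylated H4 peptide (aa 1-24) and 600 nM acetyl-CoA. Acetyl-K8 detected by Eu-antibody/SA-XL665 TR-FRET (665/620 nm ratio); IC50 from 4-parameter fit.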

KAT6B = target: T2, KAT6B (Homo sapiens, UniProt Q8WYB5); test: Kat6b activity assay (TR-FRET, acetylation of biotinylated histone H4 peptide); format: biochemical; conditions: recombinant human GST-tagged Kat6b (431-end), 30 mins at 22° C., read-out: KAT6B activity assay IC50 [mol/l] (arithmetic mean)
T2 construct: fused on or other part: N-terminal GST tag
Excerpt: Kat6b inhibitory activities of the compounds described in the present invention were quantified using a Fluorescence Resonance Energy Transfer (TR-FRET) assay which measures acetylation of a synthetic, biotinylated Histone-H4-derived peptide by the enzyme.
Recombinant human GST-tagged Kat6b protein (431-end, N-terminal GST-tag), purified from Baculovirus-infected insect cells (Sf9), was purchased from SignalChem (#K315-381BG). Histone H4 peptide (amino acids 1-24, […]-VLRD-K(Btn)-amide), which was used as substrate, was synthesized by Biosyntan GmbH, Berlin, Germany. Acetyl Coenzyme A was purchased from Sigma-Aldrich (#A-2056).
Kat6b was incubated for 30 mins at 22° C. in the presence of different concentrations of test substances (0 μM, and within the range 0.01-20 μM) in assay buffer [25 mM Tris/HCl pH 8, 1 mM EGTA, 2.5 mM Glutathion, 0.02% Chicken Albumin, 0.05% Pluronic F127, 25 mM NaCl, 500 nM H4 peptide and 600 nM Acetyl Coenzyme A].
The reaction was stopped by addition of Detection Solution (25 mM HEPES pH 7.5, 0.1% BSA, 22 nM SAXL665 (Cisbio #610SAXLE), 100 μM Anacardic Acid (Enzo #ALX-270-381), 1 nM Anti-Histone H4 (ACETYL K8) Antibody (ABCAM #AB15823), 0.5 nM Anti-Rabbit IgG Eu (Perkin Elmer #AD0083).
The fluorescence emission at 620 nm and 665 nm after excitation at 330-350 nm was measured in a TR-FRET measuring instrument, for instance a Rubystar or a Pherastar (both from BMG Lab Technologies, Offenburg, Germany) or a Viewlux (Perkin-Elmer). The ratio of the emission at 665 nm and at […] was used as indicator of the amount of acetylated peptide.
The resulting data (ratio) were normalized, taking 0% inhibition as the mean value of control measurements where all reagents were included. In this case 50 nl DMSO were used instead of compounds. […] IC50 values were determined by regression analysis based on a 4 parameter equation (minimum, maximum, ICM, Hill; Y=Max+(Min−Max)/(1+(X/ICso) Hill) using the Screener Software (Genedata).

[1] = tested on: ESR1 transcription in MVLN cells; test: Repression of ESR1 transcription, MVLN luciferase reporter assay; format: cell-based; conditions: Homo sapiens, luciferase signal after 24 h, read-out: MVLN reporter assay, IC50[M] (arithmetic mean)
Procedure, shortened: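 MVLN cells stably carry an ER-responsive vitellogenin A2 element driving luciferase. After 24 h of compound treatment, luciferase was read in lysate as the measure of ERα transcription. Alamar Blue fluorescence (530/590 nm, 2 h) was read first to control for cell loss; samples were run in duplicate.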

ZR-75-1 cells = test: Proliferation assay in ZR-75-1 cells; format: cell-based; conditions: Homo sapiens, 144 h, Alamar Blue, read-out: ZR75-1 proliferation assay, EC50[M] (arithmetic mean)
Excerpt: (§1) For compound characterization cell survival assays were routinely run in two cell lines. ZR-75-1 is a breast carcinoma cell line containing a focal KAT6A amplification and high KAT6A protein expression. Proliferation of this cell line is inhibited upon treatment with KAT6A inhibitors. As a negative control cell line MDA-MB-436 were used. These cells carry a […] deletion of the KAT6A gene, have a low KAT6A protein expression and are not growth inhibited upon treatment with KAT6A inhibitors.
(§2) For measurements cell lines were plated at the below indicated concentration per […] in 96-well plates in a humidified incubator at 37° C. and 5% CO2.
(§3) ZR-75-1 (ATCC, CRL-1500; breast carcinoma); 3000 cells per well; culture medium: RPMI 1640 (Biochrom #FG 1215) medium containing 2.5% FBS (Biochrom #S0615). LCLC-97TM1 (DSMZ, ACC 388; large cell lung carcinoma); 6000 cells per well; culture medium: RPMI 1640 (Biochrom #FG 1215) medium containing 2.5% FBS (Biochrom #S0615). MDA-MB-436 (CLS, 300278; breast adenocarcinoma); 3000 cells per well; culture medium: DMEM/Ham's F12 (Biochrom #FG 4815) medium containing 2.5% FBS (Biochrom #S0615).
(§4) Each sample was prepared as triplicate and rim wells were excluded. Plates were incubated at 37° C. and 5% CO2 for 144 h. Cell viability was measured by adding 10 μL of Alamar Blue Reagent (Invitrogen #DAL 1100) and plates were incubated for 2 h at 37° C. and 5% CO2. Fluorescence was measured at 590 nm wavelength with a Tecan Spark or Victor X3 MTP-Reader (PerkinElmer).

MDA-MB-436 cells = test: Proliferation assay in MDA-MB-436 cells (negative control cell line); format: cell-based; conditions: Homo sapiens, 144 h, Alamar Blue, read-out: MDA-MB-436 proliferation assay, EC50[M] (arithmetic mean)
Excerpt: as §1, §2, §3, §4

LCLC-97TM1 cells = test: Proliferation assay in LCLC-97TM1 cells; format: cell-based; conditions: Homo sapiens, 144 h, Alamar Blue, read-out: LCLC97TM1 proliferation assay, EC50[M] (arithmetic mean)
Experimental: as §2, §3, §4

[2] = tested on: Salmonella tester strain TA98; test: Bacterial reverse gene mutation test Ames MPF Penta I, TA98; format: cell-based
Excerpt: (§5) The employed commercial assay Ames MPF Penta I comprises the histidine auxotrophic Salmonella tester strains TA98, TA100, TA1535, TA1537 and two tryptophan auxotrophic tester strains E. coli wp2 (E. coli wp2 [pKM101] and E. coli wp2 uvrA, combined exposure). These strains meet the requirements of the OECD guideline 471 for testing chemicals.
(§6) Bacterial strains were exposed to various concentrations of the test compounds in a histidine (His) or tryptophane (Trp) deficient medium. As recommended by ICH S2(R1) guideline, the test was conducted in two assay conditions, with and without addition of microsomal enzymes (S9 mix), taking the potential formation of DNA reactive metabolites via xenobiotic biotransformation into account.
(§7) The potential of the test compound to induce gene mutations is assessed by comparing the control with the test compounds treated bacterial cultures.

[3] = tested on: Salmonella tester strain TA100; test: Bacterial reverse gene mutation test Ames MPF Penta I, TA100; format: cell-based
Excerpt: as §5, §6, §7

[4] = tested on: Salmonella tester strain TA1535; test: Bacterial reverse gene mutation test Ames MPF Penta I, TA1535; format: cell-based
Excerpt: as §5, §6, §7

[5] = tested on: Salmonella tester strain TA1537; test: Bacterial reverse gene mutation test Ames MPF Penta I, TA1537; format: cell-based
Excerpt: as §5, §6, §7

[6] = tested on: E. coli wp2 (E. coli wp2 [pKM101] and E. coli wp2 uvrA, combined exposure); test: Bacterial reverse gene mutation test Ames MPF Penta I, E. coli wp2; format: cell-based
Excerpt: as §5, §6, §7

T1 sequence (Q92794 194-810): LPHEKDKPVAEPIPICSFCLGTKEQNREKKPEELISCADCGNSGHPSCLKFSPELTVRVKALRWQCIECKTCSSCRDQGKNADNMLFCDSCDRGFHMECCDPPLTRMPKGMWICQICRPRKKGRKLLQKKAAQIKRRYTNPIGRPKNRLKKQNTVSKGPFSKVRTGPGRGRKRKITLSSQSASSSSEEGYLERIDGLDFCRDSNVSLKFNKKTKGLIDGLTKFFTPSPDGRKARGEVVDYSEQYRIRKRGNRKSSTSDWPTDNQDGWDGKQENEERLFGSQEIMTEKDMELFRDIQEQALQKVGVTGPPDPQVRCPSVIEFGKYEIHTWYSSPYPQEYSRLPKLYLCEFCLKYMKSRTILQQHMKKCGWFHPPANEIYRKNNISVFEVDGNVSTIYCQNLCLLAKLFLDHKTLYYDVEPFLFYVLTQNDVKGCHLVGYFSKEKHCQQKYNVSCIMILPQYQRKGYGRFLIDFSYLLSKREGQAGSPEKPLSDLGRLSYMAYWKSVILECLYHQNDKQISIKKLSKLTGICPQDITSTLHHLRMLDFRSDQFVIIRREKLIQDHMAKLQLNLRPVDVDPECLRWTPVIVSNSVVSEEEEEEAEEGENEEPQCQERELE
T2 sequence (Q8WYB5 723-2073 limits assumed): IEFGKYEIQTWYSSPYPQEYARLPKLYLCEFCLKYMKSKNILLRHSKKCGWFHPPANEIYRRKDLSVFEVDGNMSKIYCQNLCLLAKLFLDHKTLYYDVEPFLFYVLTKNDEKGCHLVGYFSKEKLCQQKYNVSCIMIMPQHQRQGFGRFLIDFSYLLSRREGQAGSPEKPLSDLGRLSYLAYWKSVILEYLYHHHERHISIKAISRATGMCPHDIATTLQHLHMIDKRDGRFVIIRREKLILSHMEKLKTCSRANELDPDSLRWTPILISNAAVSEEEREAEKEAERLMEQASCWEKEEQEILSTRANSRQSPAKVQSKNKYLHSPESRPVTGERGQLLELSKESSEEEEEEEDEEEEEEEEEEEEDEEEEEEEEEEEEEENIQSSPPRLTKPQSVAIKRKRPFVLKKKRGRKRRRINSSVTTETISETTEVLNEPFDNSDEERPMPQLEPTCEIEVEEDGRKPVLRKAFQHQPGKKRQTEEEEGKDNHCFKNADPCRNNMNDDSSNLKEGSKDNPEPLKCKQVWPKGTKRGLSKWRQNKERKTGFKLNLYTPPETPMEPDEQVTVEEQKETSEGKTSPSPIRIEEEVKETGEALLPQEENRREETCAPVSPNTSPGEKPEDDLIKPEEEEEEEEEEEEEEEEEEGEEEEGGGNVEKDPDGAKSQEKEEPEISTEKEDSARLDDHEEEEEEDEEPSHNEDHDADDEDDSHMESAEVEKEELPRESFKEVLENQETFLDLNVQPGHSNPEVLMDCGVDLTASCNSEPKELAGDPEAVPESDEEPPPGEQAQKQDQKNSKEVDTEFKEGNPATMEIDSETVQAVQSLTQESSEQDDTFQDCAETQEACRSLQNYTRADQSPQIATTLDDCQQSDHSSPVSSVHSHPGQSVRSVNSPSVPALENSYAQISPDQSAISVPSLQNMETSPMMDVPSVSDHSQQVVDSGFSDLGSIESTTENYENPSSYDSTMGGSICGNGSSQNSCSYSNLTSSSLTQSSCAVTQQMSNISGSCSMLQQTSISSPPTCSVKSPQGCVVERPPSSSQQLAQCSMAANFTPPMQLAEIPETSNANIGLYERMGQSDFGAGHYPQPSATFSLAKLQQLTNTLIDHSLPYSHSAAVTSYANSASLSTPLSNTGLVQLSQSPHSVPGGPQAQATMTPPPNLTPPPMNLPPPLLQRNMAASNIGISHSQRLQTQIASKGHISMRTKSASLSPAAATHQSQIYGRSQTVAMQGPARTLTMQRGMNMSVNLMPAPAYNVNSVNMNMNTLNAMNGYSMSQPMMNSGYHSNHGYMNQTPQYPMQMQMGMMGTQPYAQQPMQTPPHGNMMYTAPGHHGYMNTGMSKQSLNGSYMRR

| SMILES | IC50 (KAT6A) | IC50 (KAT6B) | IC50 [1] | EC50 (ZR-75-1 cells) | EC50 (MDA-MB-436 cells) | EC50 (LCLC-97TM1 cells) | Result of the bacterial reverse gene mutation test Ames MPF Penta I, TA98 ([2]; with addition of S9 mix) | Result of the bacterial reverse gene mutation test Ames MPF Penta I, TA98 ([2]; without addition of S9 mix) | Result of the bacterial reverse gene mutation test Ames MPF Penta I, TA100 ([3]; with addition of S9 mix) | Result of the bacterial reverse gene mutation test Ames MPF Penta I, TA100 ([3]; without addition of S9 mix) | Result of the bacterial reverse gene mutation test Ames MPF Penta I, TA1535 ([4]; with addition of S9 mix) | Result of the bacterial reverse gene mutation test Ames MPF Penta I, TA1535 ([4]; without addition of S9 mix) | Result of the bacterial reverse gene mutation test Ames MPF Penta I, TA1537 ([5]; with addition of S9 mix) | Result of the bacterial reverse gene mutation test Ames MPF Penta I, TA1537 ([5]; without addition of S9 mix) | Result of the bacterial reverse gene mutation test Ames MPF Penta I, E. coli wp2 ([6]; with addition of S9 mix) | Result of the bacterial reverse gene mutation test Ames MPF Penta I, E. coli wp2 ([6]; without addition of S9 mix) |
| --- | --- | --- | --- | --- | --- | --- | --- | --- | --- | --- | --- | --- | --- | --- | --- | --- |
| Cc1cc(C)c2cc(C(=O)NS(=O)(=O)c3ccccc3-c3ccccc3)oc2c1 [Example 9, N-([1,1′-biphenyl]-2-sulfonyl)-4,6-dimethyl-1-benzofuran-2-carboxamide] | 0.0905 µM | 0.22 µM | 2.5e-06 M | 1.81e-05 M | > 2e-05 M |  |  |  |  |  |  |  |  |  |  |  |
| COc1cc(C)cc2oc(C(=O)NS(=O)(=O)c3ccccc3-c3ccccc3)cc12 [Example 10, N-([1,1′-biphenyl]-2-sulfonyl)-4-methoxy-6-methyl-1-benzofuran-2-carboxamide] | 0.933 µM | 1.12 µM | 1e-05 M | 1.39e-05 M | > 2e-05 M |  |  |  |  |  |  |  |  |  |  |  |
| Cc1cc(C)c2cc(C(=O)NS(=O)(=O)c3ccccc3-c3cccc(Cl)c3)oc2c1 [Example 11, N-(3′-chloro[1,1′-biphenyl]-2-sulfonyl)-4,6-dimethyl-1-benzofuran-2-carboxamide] | 0.0635 µM | 0.299 µM | 5.85e-06 M | 1.17e-05 M | 1.42e-05 M |  |  |  |  |  |  |  |  |  |  |  |
| COc1cc(C)cc2oc(C(=O)NS(=O)(=O)c3ccc(C)cc3-c3ccccc3)cc12 [Example 12, 4-Methoxy-6-methyl-N-(5-methyl[1,1′-biphenyl]-2-sulfonyl)-1-benzofuran-2-carboxamide] | 0.401 µM | 0.372 µM | 6.05e-06 M | 1.03e-05 M | > 2e-05 M |  |  |  |  |  |  |  |  |  |  |  |
| CCOc1ccccc1S(=O)(=O)NC(=O)c1cc2c(OC)cc(C)cc2o1 [Example 13, N-(2-Ethoxybenzene-1-sulfonyl)-4-methoxy-6-methyl-1-benzofuran-2-carboxamide] | 1.13 µM | 1.73 µM | 5.08e-06 M | 1.02e-05 M | > 2e-05 M |  |  |  |  |  |  |  |  |  |  |  |
| Cc1cc(C)c2cc(C(=O)NS(=O)(=O)c3cccc4ccc(C)nc34)oc2c1 [Example 21, 4,6-Dimethyl-N-(2-methylquinoline-8-sulfonyl)-1-benzofuran-2-carboxamide] | 0.0271 µM | 0.0531 µM | 1.17e-06 M | 1.61e-06 M | > 2e-05 M | 3.47e-06 M |  |  |  |  |  |  |  |  |  |  |
| CCOc1ccccc1S(=O)(=O)NC(=O)c1cc2c(F)cc(C3CC3)cc2o1 [Example 25, 6-Cyclopropyl-N-(2-ethoxybenzene-1-sulfonyl)-4-fluoro-1-benzofuran-2-carboxamide] |  | 0.0284 µM | 5.42e-07 M | 6.44e-07 M | > 2e-05 M | > 2e-05 M | negative | negative | negative | negative | negative | negative | negative | negative | negative | negative |
| CCC(C)c1ccc2cc(C(=O)NS(=O)(=O)c3ccccc3-c3ccccc3)oc2c1 (centres unmarked) [Example 27, N-([1,1′-biphenyl]-2-sulfonyl)-6-(butan-2-yl)-1-benzofuran-2-carboxamide] | 2.03 µM | 9.21 µM | > 2e-05 M | > 2e-05 M | > 2e-05 M |  |  |  |  |  |  |  |  |  |  |  |
| CC(C)c1ccc2cc(C(=O)NS(=O)(=O)c3ccccc3-c3ccccc3)oc2c1 [Example 54, N-{[1,1′-Biphenyl]-2-sulfonyl}-6-(propan-2-yl)-1-benzofuran-2-carboxamide] | 0.464 µM | 0.667 µM | 3.02e-06 M | 5.75e-06 M | > 2e-05 M | > 2e-05 M |  |  |  |  |  |  |  |  |  |  |
| CC(C)c1ccc2cc(C(=O)NS(=O)(=O)c3ccccc3)oc2c1 [Example 56, N-(Benzenesulfonyl)-6-(propan-2-yl)-1-benzofuran-2-carboxamide] | 1.56 µM | 3.94 µM | 1.52e-05 M | > 2e-05 M | > 2e-05 M |  |  |  |  |  |  |  |  |  |  |  |
| CC(C)c1ccc2cc(C(=O)NS(=O)(=O)c3ccccc3Cl)oc2c1 [Example 73, N-(2-chlorobenzenesulfonyl)-6-(propan-2-yl)-1-benzofuran-2-carboxamide] | 1.35 µM | 1.78 µM | 8.69e-06 M | 7.08e-06 M | > 2e-05 M | > 2e-05 M |  |  |  |  |  |  |  |  |  |  |
